Structures are written as SMILES.

Common to all, as to format: nucleic-acid assay
The subject of assay [1] is Nucleic Acid. The assay is described as follows: DNA cleavage activity using supercoiled bacteriophage (piX174Rf II) DNA at 10e-3 M concentration (5% control).
Assay [2] concerns Nucleic Acid. The assay is described as follows: DNA cleavage activity using supercoiled bacteriophage (piX174Rf III) DNA at 10e-5 M concentration (0% control).
The test system of assay [3] is Nucleic Acid. As to the kind of experiment: DNA cleavage activity using supercoiled bacteriophage (piX174Rf III) DNA at 10e-3 M concentration (0% control).
Assay [4] has as its system Nucleic Acid. As to the kind of experiment: DNA cleavage activity using supercoiled bacteriophage (piX174Rf I) DNA at 10e-3 M concentration (95% control).
The subject of assay [5] is Nucleic Acid. The assay is described as follows: DNA cleavage activity using supercoiled bacteriophage (piX174Rf I) DNA at 10e-4 M concentration (95% control).
The subject of assay [6] is Nucleic Acid. As to the kind of experiment: DNA cleavage activity using supercoiled bacteriophage (piX174Rf III) DNA at 10e-4 M concentration (0% control).
Assay [7] deals with Nucleic Acid. The assay is described as follows: DNA cleavage activity using supercoiled bacteriophage (piX174Rf II) DNA at 10e-4 M concentration (5% control).
Assay [8] relates to Nucleic Acid. As to the kind of experiment: DNA cleavage activity using supercoiled bacteriophage (piX174Rf I) DNA at 10e-5 M concentration (95% control).
Assay [9] deals with Nucleic Acid. The assay is described as follows: DNA cleavage activity using supercoiled bacteriophage (piX174Rf II) DNA at 10e-5 M concentration (5% control).

Turning to `O=C(OCC1CC#C/C=C\C#CCC1)c1ccccc1` (stereo not drawn), the Cleavage is 82% with Nucleic Acid [1]; 0% with Nucleic Acid [2]; 3% in the assay with Nucleic Acid [3]; 15% in the assay on Nucleic Acid [4]; 78% in the assay on Nucleic Acid [5]; 0% in the assay with Nucleic Acid [6]. Further, the Cleavage with Nucleic Acid [7] is 22%; in the assay on Nucleic Acid [8], 93%; in the assay with Nucleic Acid [9], 7%.
Turning to `O=C(OCC1CC#C/C=C\C#CCC1)c1cc2c3ccccc3c3ccccc3c2[nH]1` (stereo not drawn), the Cleavage with Nucleic Acid [1] came to 88%; in the assay on Nucleic Acid [2], 0%; with Nucleic Acid [3], 5%; in the assay with Nucleic Acid [4], 7%; with Nucleic Acid [5], 45%; in the assay on Nucleic Acid [6], 0%. The Cleavage in the assay with Nucleic Acid [7] turned out to be 55%; in the assay with Nucleic Acid [8] it was 79%; in the assay on Nucleic Acid [9], 21%.

The values above are taken from ChEMBL document CHEMBL1150527, “Bifunctional antitumor agents: a DNA interactive enediyne from the pyrrolo[9,10-b]phenanthrene template” (Bioorg Med Chem Lett, 1997).
